# Measurements: patent US20160158200A1, “Combinations of Hepatitis C Virus Inhibitors” (priority 2013, published 2016)
# Test system: HCV genotype-1a variant with glutamine 30 changed to glutamate in the NS5A protein
# Type: cell-based
# Conditions: test compound titrated with BMS-790052 fixed at 200 nM; genotype 1a Q30E replicon
# In short: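 Synergy was assessed by combining several fixed amounts of an NS5A-targeting compound with a titration of the second compound of interest.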
row,SMILES,Fold-Synergistic 1a (Q30E)
1,"CC(C)(C)C(NC(=O)C1(C)CC1(F)F)c1nc(-c2ccc(-c3ccc(-c4c[nH]c(C(NC(=O)C5(C)CC5(F)F)C(C)(C)C)n4)cc3)cc2)c[nH]1 (single isomer, unassigned) [Compound L-58a]",>100 fold
2,CC(C)(C)[C@H](NC(=O)C(C)(C)C(C)(C)O)c1ncc(-c2ccc(-c3ccc(-c4cnc([C@@H](NC(=O)C(C)(C)C(C)(C)O)C(C)(C)C)[nH]4)cc3)cc2)[nH]1 [Compound B69],>100 fold
3,Cc1noc(C)c1C(=O)N[C@H](c1ncc(-c2ccc(-c3ccc(-c4cnc([C@@H](NC(=O)c5c(C)noc5C)C(C)C)[nH]4)cc3)cc2)[nH]1)C(C)C [Compound S-96],>100 fold
4,O=C(N1CCC(F)(F)CC1)C1(c2nc(-c3ccc(-c4ccc(-c5c[nH]c(C6(C(=O)N7CCC(F)(F)CC7)CCC6)n5)cc4)cc3)c[nH]2)CCC1 [Compound P-137],>10 fold
5,CC(C)[C@H](NC(=O)c1ccc(F)cc1)c1ncc(-c2ccc(-c3ccc(-c4cnc([C@@H](NC(=O)c5ccc(F)cc5)C(C)C)[nH]4)cc3)cc2)[nH]1 [Compound S-82],>100 fold
6,O=C(c1cccc2cnccc12)N1CCC[C@H]1c1ncc(-c2ccc(-c3ccc(-c4cnc([C@@H]5CCCN5C(=O)c5cccc6cnccc56)[nH]4)cc3)cc2)[nH]1 [Compound S-203],<10 fold
7,CC(C)[C@H](NC(=O)c1cc(Cl)ccc1F)c1ncc(-c2ccc(-c3ccc(-c4cnc([C@@H](NC(=O)c5cc(Cl)ccc5F)C(C)C)[nH]4)cc3)cc2)[nH]1 [Compound Y-24],>100 fold
8,C[C@@H]1CN(C(=O)C(=O)N[C@H](c2nc(-c3ccc(-c4ccc(-c5c[nH]c([C@@H](NC(=O)C(=O)N6C[C@@H](C)O[C@@H](C)C6)C(C)(C)C)n5)cc4)cc3)c[nH]2)C(C)(C)C)C[C@H](C)O1 [Compound W-45],>100 fold
9,COc1ccc(C(=O)C(=O)N[C@H](c2ncc(-c3ccc(-c4ccc(-c5cnc([C@@H](NC(=O)C(=O)c6ccc(OC)c(Cl)c6)C(C)C)[nH]5)cc4)cc3)[nH]2)C(C)C)cc1Cl [Compound P-113],>100 fold
10,O=C(c1cnc(Cl)c2ccccc12)N1CCC[C@H]1c1ncc(-c2ccc(-c3ccc(-c4cnc([C@@H]5CCCN5C(=O)c5cnc(Cl)c6ccccc56)[nH]4)cc3)cc2)[nH]1 [Compound S-200],>100 fold
11,CO[C@H](C(=O)N[C@H](c1ncc(-c2ccc(-c3ccc(-c4cnc([C@@H](NC(=O)[C@@H](OC)c5ccccc5)C(C)C)[nH]4)cc3)cc2)[nH]1)C(C)C)c1ccccc1 [Compound P-85],>100 fold
12,CC1(C)CCN(C(=O)C(=O)N2CCC(F)(F)CC2)C1c1nc(-c2ccc(-c3ccc(-c4c[nH]c(C5N(C(=O)C(=O)N6CCC(F)(F)CC6)CCC5(C)C)n4)cc3)cc2)c[nH]1 (stereo not shown) [Compound W-218],>10 fold
13,COC(=O)N(C)C1(C(=O)N[C@H](c2ncc(-c3ccc(-c4cc5ccc(-c6cnc([C@@H](NC(=O)C7(N(C)C(=O)OC)CC7)C(C)(C)C)[nH]6)cc5o4)cc3)[nH]2)C(C)(C)C)CC1.O=C(O)C(F)(F)F [Compound B63],>10 fold
14,COc1ccc2cc([C@@H](C)C(=O)N[C@H](c3nc(-c4ccc(-c5ccc(-c6c[nH]c([C@@H](NC(=O)[C@H](C)c7ccc8cc(OC)ccc8c7)C(C)(C)C)n6)cc5)cc4)c[nH]3)C(C)(C)C)ccc2c1 [Compound S-254],>100 fold
15,CC(C)(C)OC(=O)NC1(C(=O)N[C@H](c2nc(-c3ccc(-c4ccc(-c5c[nH]c([C@@H](NC(=O)C6(NC(=O)OC(C)(C)C)CCCC6)C(C)(C)C)n5)cc4)cc3)c[nH]2)C(C)(C)C)CCCC1.O=C(O)C(F)(F)F.O=C(O)C(F)(F)F [Compound L-6],>100 fold
16,CC(C)[C@H](NC(=O)C(C)(C)Oc1ccccc1F)c1ncc(-c2ccc(-c3ccc(-c4cnc([C@@H](NC(=O)C(C)(C)Oc5ccccc5F)C(C)C)[nH]4)cc3)cc2)[nH]1 [Compound Y-33],>100 fold
17,CN1CCC[C@H]1C(=O)N[C@H](c1nc(-c2ccc(-c3ccc(-c4c[nH]c([C@@H](NC(=O)[C@@H]5CCCN5C)C(C)(C)C)n4)cc3)cc2)c[nH]1)C(C)(C)C [Compound P-36],>10 fold
18,CC(C)[C@H](NC(=O)c1ccccc1Cl)c1ncc(-c2ccc(-c3ccc(-c4cnc([C@@H](NC(=O)c5ccccc5Cl)C(C)C)[nH]4)cc3)cc2)[nH]1 [Compound S-65],>100 fold
19,COCCC(=O)N1C[C@H](F)C[C@H]1C(=O)N[C@H](c1nc(-c2ccc(-c3ccc(-c4c[nH]c([C@@H](NC(=O)[C@@H]5C[C@@H](F)CN5C(=O)CCOC)C(C)(C)C)n4)cc3)cc2)c[nH]1)C(C)(C)C [Compound W-103],>100 fold
20,CC(C)[C@H](NC(=O)c1ccno1)c1ncc(-c2ccc(-c3ccc(-c4cnc([C@@H](NC(=O)c5ccno5)C(C)C)[nH]4)cc3)cc2)[nH]1 [Compound S-100],>100 fold

row,SMILES,Fold-Synergistic 1a (Q30E)
1,CCOC(=O)CC1(C(=O)N[C@H](c2nc(-c3ccc(-c4ccc(-c5c[nH]c([C@@H](NC(=O)C6(NC(=O)OCC)CCCCC6)C(C)(C)C)n5)cc4)cc3)c[nH]2)C(C)(C)C)CCCCC1 [Compound W-250],>100 fold
2,CC(C)C(NC(=O)C1(C)CCC(F)(F)CO1)c1ncc(-c2ccc(-c3ccc(-c4cnc(C(NC(=O)C5(C)CCC(F)(F)CO5)C(C)C)n4C)cc3)cc2)n1C (stereo not shown) [Compound B-201],>10 fold
3,CC(C)(C)C(NC(=O)C(C)(C)C(O)C1CC1)c1nc(-c2ccc(-c3ccc(-c4c[nH]c(C(NC(=O)C(C)(C)C(O)C5CC5)C(C)(C)C)n4)cc3)cc2)c[nH]1 (mixture of isomers) [Compound N-148],>100 fold
4,CC1(C(NC(=O)C(C)(C)C(O)C2CC2)c2nc(-c3ccc(-c4ccc(-c5c[nH]c(C(NC(=O)C(C)(C)C(O)C6CC6)C6(C)CC6)n5)cc4)cc3)c[nH]2)CC1 (mixture of isomers) [Compound N-150],>100 fold
5,CC(C)[C@H](NC(=O)c1ccccc1C(F)(F)F)c1ncc(-c2ccc(-c3ccc(-c4cnc([C@@H](NC(=O)c5ccccc5C(F)(F)F)C(C)C)[nH]4)cc3)cc2)[nH]1 [Compound S-69],>100 fold
6,CC(C)(C)[C@H](NC(=O)C1CCC(F)(F)CC1)c1ncc(-c2cc3cc4oc(-c5cnc([C@@H](NC(=O)C6CCC(F)(F)CC6)C(C)(C)C)[nH]5)cc4cc3o2)[nH]1 [Compound B59],>100 fold
7,"CC1(C)CCCC(C)(C(=O)N[C@H](c2nc(-c3ccc(-c4ccc(-c5c[nH]c([C@@H](NC(=O)C6(C)CCCC(C)(C)O6)C(C)(C)C)n5)cc4)cc3)c[nH]2)C(C)(C)C)O1 (single isomer, unassigned) [Compound W-167]",>100 fold
8,CC(C)[C@H](NC(=O)CC(C)(C)C)c1ncc(-c2ccc(-c3ccc(-c4cnc([C@@H](NC(=O)CC(C)(C)C)C(C)C)[nH]4)cc3)cc2)[nH]1 [Compound P-56],>100 fold
9,CCOC(=O)NC(C)(C)C(=O)N[C@H](c1nc(-c2ccc(-c3ccc(-c4c[nH]c([C@@H](NC(=O)C(C)(C)NC(=O)OCC)C(C)(C)C)n4)cc3)cc2)c[nH]1)C(C)(C)C [Compound Q-2],>100 fold
10,CC(C)[C@H](NC(=O)C(=O)C1(CO)CCC(F)(F)CC1)c1ncc(-c2ccc(-c3ccc(-c4cnc([C@@H](NC(=O)C(=O)C5(CO)CCC(F)(F)CC5)C(C)C)[nH]4)cc3)cc2)[nH]1 [Compound P-128],>100 fold
11,CC(C)(C)[C@H](NC(=O)C1(c2ccc(Cl)cc2)CC1)c1nc(-c2ccc(-c3ccc(-c4c[nH]c([C@@H](NC(=O)C5(c6ccc(Cl)cc6)CC5)C(C)(C)C)n4)cc3)cc2)c[nH]1 [Compound N-56],>100 fold
12,CC(C)COC(=O)N1CCC[C@H]1c1ncc(-c2ccc(-c3ccc(-c4cnc([C@@H]5CCCN5C(=O)OCC(C)C)[nH]4)cc3)cc2)[nH]1 [Compound S-222],>10 fold
13,CC(CO)(CO)C(=O)N[C@H](c1nc(-c2ccc(-c3ccc(-c4c[nH]c([C@@H](NC(=O)C(C)(CO)CO)C(C)(C)C)n4)cc3)cc2)c[nH]1)C(C)(C)C [Compound W-125],>100 fold
14,C[C@H]1CCN(C(=O)C(=O)N2CCC(F)(F)CC2)C1c1nc(-c2ccc(-c3ccc(-c4c[nH]c(C5[C@@H](C)CCN5C(=O)C(=O)N5CCC(F)(F)CC5)n4)cc3)cc2)c[nH]1 (stereo partly shown) [Compound W-187],>100 fold
15,CC(C)[C@H](NC(=O)C(F)(F)c1ccccc1)c1ncc(-c2ccc(-c3ccc(-c4cnc([C@@H](NC(=O)C(F)(F)c5ccccc5)C(C)C)[nH]4)cc3)cc2)[nH]1 [Compound P-97],>100 fold
16,"CC(C)[C@H](NC(=O)C12CCC(C1)C(C)(C)C2O)c1nc(-c2ccc(-c3ccc(-c4c[nH]c([C@@H](NC(=O)C56CCC(C5)C(C)(C)C6O)C(C)C)n4)cc3)cc2)c[nH]1 (single isomer, unassigned) [Compound Y-113]",>100 fold
17,CC(C)(C)[C@H](NC(=O)C(N)=O)c1nc(-c2ccc(-c3ccc(-c4c[nH]c([C@@H](NC(=O)C(N)=O)C(C)(C)C)n4)cc3)cc2)c[nH]1 [Compound W-42],>10 fold
18,CC(C)[C@H](NC(=O)C1CCC(F)(F)CC1)c1nc2ccc(C#Cc3ccc4nc([C@@H](NC(=O)C5CCC(F)(F)CC5)C(C)C)[nH]c4c3)cc2[nH]1.O=C(O)C(F)(F)F [Compound B42],>100 fold
19,CC1([C@H](NC(=O)C2(C(C)(C)O)CC2)c2ncc(-c3ccc(-c4ccc(-c5cnc([C@@H](NC(=O)C6(C(C)(C)O)CC6)C6(C)CC6)[nH]5)cc4)cc3)[nH]2)CC1 [Compound B149],>100 fold
20,"COC(C)(CO)C(=O)N[C@H](c1nc(-c2ccc(-c3ccc(-c4c[nH]c([C@@H](NC(=O)C(C)(CO)OC)C(C)(C)C)n4)cc3)cc2)c[nH]1)C(C)(C)C (single isomer, unassigned) [Compound W-234]",>10 fold
